Measurements: patent US6936585B2, “Corticotropin releasing factor 2 receptor agonists” (priority 2002, dated 2005)
Peptide text beside a SMILES is read from it.

What was measured:
CRF2R = molecular target: T1, CRF2R (Homo sapiens, UniProt Q13324); experiment: CRF2R agonist activation (EC50 / Emax), called comparative CRF binding; format: cell-based; settings: for Emax: read-out: CRF2R Emax
T1 sequence (Q13324 1-411): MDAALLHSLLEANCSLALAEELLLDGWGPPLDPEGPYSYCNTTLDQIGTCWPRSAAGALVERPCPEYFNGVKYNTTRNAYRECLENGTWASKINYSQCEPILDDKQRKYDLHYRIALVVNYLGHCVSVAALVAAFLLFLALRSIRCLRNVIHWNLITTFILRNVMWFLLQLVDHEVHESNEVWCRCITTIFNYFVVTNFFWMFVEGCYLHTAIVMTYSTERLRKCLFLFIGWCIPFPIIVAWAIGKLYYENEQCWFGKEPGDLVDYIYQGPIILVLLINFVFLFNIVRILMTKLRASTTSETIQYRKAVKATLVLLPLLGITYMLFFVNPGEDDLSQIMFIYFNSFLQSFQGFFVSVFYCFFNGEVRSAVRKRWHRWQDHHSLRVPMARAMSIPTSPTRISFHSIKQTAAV
Outline: (§1)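 CRFR-expressing cells + peptide vs vehicle; read-out cAMP (lysate assay) or CRE-linked reporter expression (luciferase, CAT, fluorescent protein, alkaline phosphatase, etc.). Signal compared against vehicle-treated cells.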

CRF1R = molecular target: T2, CRF1R (Homo sapiens, UniProt P34998); experiment: CRF1R agonist activation (EC50 / Emax), called comparative CRF binding; format: cell-based; settings: for Emax: read-out: CRF1R Emax
T2 sequence (P34998 24-415): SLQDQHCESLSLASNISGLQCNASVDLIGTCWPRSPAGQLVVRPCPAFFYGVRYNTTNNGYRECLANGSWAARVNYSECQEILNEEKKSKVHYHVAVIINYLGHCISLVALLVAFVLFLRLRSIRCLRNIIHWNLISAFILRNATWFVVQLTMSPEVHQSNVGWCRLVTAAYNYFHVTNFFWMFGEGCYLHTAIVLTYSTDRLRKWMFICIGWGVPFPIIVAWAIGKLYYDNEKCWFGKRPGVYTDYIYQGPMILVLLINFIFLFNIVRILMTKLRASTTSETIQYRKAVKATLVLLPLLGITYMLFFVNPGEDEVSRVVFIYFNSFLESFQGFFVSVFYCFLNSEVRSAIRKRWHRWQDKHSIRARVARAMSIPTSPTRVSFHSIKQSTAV
Outline: as §1

SMILES: CC[C@H](C)[C@H](N)C(=O)N[C@H](C(=O)N[C@@H](CC(C)C)C(=O)N[C@@H](CO)C(=O)N[C@@H](CC(C)C)C(=O)N[C@@H](CC(=O)O)C(=O)N[C@H](C(=O)N1CCC[C@H]1C(=O)N[C@H](C(=O)NCC(=O)N[C@@H](CC(C)C)C(=O)N[C@@H](CC(C)C)C(=O)N[C@@H](CCC(N)=O)C(=O)N[C@H](C(=O)N[C@@H](CC(C)C)C(=O)N[C@@H](CC(C)C)C(=O)N[C@@H](CCC(=O)O)C(=O)N[C@@H](CCC(N)=O)C(=O)N[C@@H](C)C(=O)N[C@@H](CCCNC(=N)N)C(=O)N[C@@H](C)C(=O)N[C@@H](CCCNC(=N)N)C(=O)N[C@@H](C)C(=O)N[C@@H](C)C(=O)N[C@@H](CCCNC(=N)N)C(=O)N[C@@H](CCC(=O)O)C(=O)N[C@@H](CCC(N)=O)C(=O)N[C@@H](C)C(=O)N[C@H](C(=O)N[C@@H](CO)C(=O)N[C@@H](CC(N)=O)C(=O)N[C@@H](CCCNC(=N)N)C(=O)N[C@@H](CCCCN)C(=O)N[C@@H](CC(C)C)C(=O)N[C@@H](CCSC)C(=O)N[C@@H](CCC(=O)O)C(=O)N[C@H](C(=O)N[C@H](C(N)=O)[C@@H](C)CC)[C@@H](C)CC)[C@@H](C)O)[C@@H](C)CC)[C@@H](C)CC)C(C)C)C(C)C [compound 163] (H-IVLSLDVPIGLLQILLEQARARAAREQATSNRKLMEII-NH2; N-terminus assumed)
- EC50 (CRF2R; read-out: CRF2R EC50): 4.49 nM
- Emax (CRF2R): 96%
- EC50 (CRF1R; read-out: CRF1R EC50): > 100 nM
- Emax (CRF1R): 13%

SMILES: CC[C@H](C)[C@H](N)C(=O)N[C@H](C(=O)N[C@@H](CC(C)C)C(=O)N[C@@H](CO)C(=O)N[C@@H](CC(C)C)C(=O)N[C@@H](CC(=O)O)C(=O)N[C@H](C(=O)N1CCC[C@H]1C(=O)N[C@H](C(=O)NCC(=O)N[C@@H](CC(C)C)C(=O)N[C@@H](CC(C)C)C(=O)N[C@@H](CCC(N)=O)C(=O)N[C@H](C(=O)N[C@@H](CC(C)C)C(=O)N[C@@H](CC(C)C)C(=O)N[C@@H](CCC(=O)O)C(=O)N[C@@H](CCSC)C(=O)N[C@@H](C)C(=O)N[C@@H](CCCNC(=N)N)C(=O)N[C@@H](C)C(=O)N[C@@H](CCC(=O)O)C(=O)N[C@@H](CCC(N)=O)C(=O)N[C@@H](CC(C)C)C(=O)N[C@@H](C)C(=O)N[C@@H](CCC(N)=O)C(=O)N[C@@H](CCC(N)=O)C(=O)N[C@@H](C)C(=O)N[C@@H](Cc1c[nH]cn1)C(=O)N[C@@H](CO)C(=O)N[C@@H](CC(N)=O)C(=O)N[C@@H](CCCNC(=N)N)C(=O)N[C@@H](CCCCN)C(=O)N[C@@H](CC(C)C)C(=O)N[C@@H](CCSC)C(=O)N[C@@H](CCC(=O)O)C(=O)N[C@H](C(=O)N[C@H](C(N)=O)[C@@H](C)CC)[C@@H](C)CC)[C@@H](C)CC)[C@@H](C)CC)C(C)C)C(C)C [compound 164] (H-IVLSLDVPIGLLQILLEMARAEQLAQQAHSNRKLMEII-NH2; N-terminus assumed)
- Emax (CRF2R): 92%
- Emax (CRF1R): 26%

SMILES: CC[C@H](C)[C@H](N)C(=O)N[C@H](C(=O)N[C@@H](CC(C)C)C(=O)N[C@@H](CO)C(=O)N[C@@H](CC(C)C)C(=O)N[C@@H](CC(=O)O)C(=O)N[C@H](C(=O)N1CCC[C@H]1C(=O)N[C@H](C(=O)NCC(=O)N[C@@H](CC(C)C)C(=O)N[C@@H](CC(C)C)C(=O)N[C@@H](CCC(N)=O)C(=O)N[C@@H](CCC(=O)O)C(=O)N[C@H](C(=O)N[C@@H](CC(C)C)C(=O)N[C@@H](CCC(=O)O)C(=O)N[C@@H](CCSC)C(=O)N[C@@H](C)C(=O)N[C@@H](CCCNC(=N)N)C(=O)N[C@@H](C)C(=O)N[C@@H](CCC(=O)O)C(=O)N[C@@H](CCC(N)=O)C(=O)N[C@@H](CC(C)C)C(=O)N[C@@H](C)C(=O)N[C@@H](CCC(N)=O)C(=O)N[C@@H](CCC(N)=O)C(=O)N[C@@H](C)C(=O)N[C@@H](Cc1c[nH]cn1)C(=O)N[C@@H](CO)C(=O)N[C@@H](CC(N)=O)C(=O)N[C@@H](CCCNC(=N)N)C(=O)N[C@@H](CCCCN)C(=O)N[C@@H](CC(C)C)C(=O)N[C@@H](CCSC)C(=O)N[C@@H](CCC(=O)O)C(=O)N[C@H](C(=O)N[C@H](C(N)=O)[C@@H](C)CC)[C@@H](C)CC)C(C)C)[C@@H](C)CC)C(C)C)C(C)C [compound 165] (H-IVLSLDVPIGLLQEVLEMARAEQLAQQAHSNRKLMEII-NH2)
- Emax (CRF2R): 75%
- Emax (CRF1R): 19%
